Laboratory results: the NIST ThermoML archive (doi:10.1016/j.jct.2017.07.016)
± gives the expanded uncertainty stated by the source.

Assay: xn = mol fraction of the nth substance listed
Settings: 303.15 K; 96.7 kPa; Liquid; Capillary tube (Ostwald / Ubbelohde) method; x2 = 0

SMILES | viscosity
C[S+](C)[O-] [dimethyl sulfoxide] + CCCCCCn1cc[n+](C)c1.[Cl-] | 1.8 ± 0.27 mPa·s
CN(C)C=O [dimethylformamide] + CCCCCCn1cc[n+](C)c1.[Cl-] | 0.766 ± 0.12 mPa·s
CC(=O)N(C)C [N,N-dimethylethanamide] + CCCCCCn1cc[n+](C)c1.[Cl-] | 0.891 ± 0.13 mPa·s
c1ccncc1 [pyridine] + CCCCCCn1cc[n+](C)c1.[Cl-] | 0.843 ± 0.13 mPa·s

Same assay, conditions: 303.15 K; 96.7 kPa; Liquid; Vibrating tube method; x2 = 0

SMILES | mass density
C[S+](C)[O-] [dimethyl sulfoxide] + CCCCCCn1cc[n+](C)c1.[Cl-] | 1090.29 ± 2.2 kg/m3
CN(C)C=O [dimethylformamide] + CCCCCCn1cc[n+](C)c1.[Cl-] | 939.18 ± 1.9 kg/m3
CC(=O)N(C)C [N,N-dimethylethanamide] + CCCCCCn1cc[n+](C)c1.[Cl-] | 931.85 ± 2 kg/m3
c1ccncc1 [pyridine] + CCCCCCn1cc[n+](C)c1.[Cl-] | 973.09 ± 1.9 kg/m3

Same assay, conditions: 308.15 K; 96.7 kPa; Liquid; Capillary tube (Ostwald / Ubbelohde) method; x2 = 0

SMILES | viscosity
C[S+](C)[O-] [dimethyl sulfoxide] + CCCCCCn1cc[n+](C)c1.[Cl-] | 1.665 ± 0.25 mPa·s
CN(C)C=O [dimethylformamide] + CCCCCCn1cc[n+](C)c1.[Cl-] | 0.723 ± 0.11 mPa·s
CC(=O)N(C)C [N,N-dimethylethanamide] + CCCCCCn1cc[n+](C)c1.[Cl-] | 0.834 ± 0.12 mPa·s
c1ccncc1 [pyridine] + CCCCCCn1cc[n+](C)c1.[Cl-] | 0.789 ± 0.12 mPa·s

Same assay, conditions: 308.15 K; 96.7 kPa; Liquid; Vibrating tube method; x2 = 0

SMILES | mass density
C[S+](C)[O-] [dimethyl sulfoxide] + CCCCCCn1cc[n+](C)c1.[Cl-] | 1085.28 ± 2.2 kg/m3
CN(C)C=O [dimethylformamide] + CCCCCCn1cc[n+](C)c1.[Cl-] | 934.41 ± 1.9 kg/m3
CC(=O)N(C)C [N,N-dimethylethanamide] + CCCCCCn1cc[n+](C)c1.[Cl-] | 927.26 ± 2 kg/m3
c1ccncc1 [pyridine] + CCCCCCn1cc[n+](C)c1.[Cl-] | 968.06 ± 1.9 kg/m3

Same assay, conditions: 313.15 K; 96.7 kPa; Liquid; Capillary tube (Ostwald / Ubbelohde) method; x2 = 0

SMILES | viscosity
C[S+](C)[O-] [dimethyl sulfoxide] + CCCCCCn1cc[n+](C)c1.[Cl-] | 1.529 ± 0.23 mPa·s
CN(C)C=O [dimethylformamide] + CCCCCCn1cc[n+](C)c1.[Cl-] | 0.685 ± 0.1 mPa·s
CC(=O)N(C)C [N,N-dimethylethanamide] + CCCCCCn1cc[n+](C)c1.[Cl-] | 0.785 ± 0.12 mPa·s
c1ccncc1 [pyridine] + CCCCCCn1cc[n+](C)c1.[Cl-] | 0.741 ± 0.11 mPa·s

Same assay, conditions: 313.15 K; 96.7 kPa; Liquid; Vibrating tube method; x2 = 0

SMILES | mass density
C[S+](C)[O-] [dimethyl sulfoxide] + CCCCCCn1cc[n+](C)c1.[Cl-] | 1080.3 ± 2.2 kg/m3
CN(C)C=O [dimethylformamide] + CCCCCCn1cc[n+](C)c1.[Cl-] | 929.64 ± 1.9 kg/m3
CC(=O)N(C)C [N,N-dimethylethanamide] + CCCCCCn1cc[n+](C)c1.[Cl-] | 922.66 ± 2 kg/m3
c1ccncc1 [pyridine] + CCCCCCn1cc[n+](C)c1.[Cl-] | 963.02 ± 1.9 kg/m3

Same assay, conditions: 318.15 K; 96.7 kPa; Liquid; Capillary tube (Ostwald / Ubbelohde) method; x2 = 0

SMILES | viscosity
C[S+](C)[O-] [dimethyl sulfoxide] + CCCCCCn1cc[n+](C)c1.[Cl-] | 1.407 ± 0.21 mPa·s
CN(C)C=O [dimethylformamide] + CCCCCCn1cc[n+](C)c1.[Cl-] | 0.651 ± 0.098 mPa·s
CC(=O)N(C)C [N,N-dimethylethanamide] + CCCCCCn1cc[n+](C)c1.[Cl-] | 0.739 ± 0.11 mPa·s
c1ccncc1 [pyridine] + CCCCCCn1cc[n+](C)c1.[Cl-] | 0.697 ± 0.11 mPa·s

Same assay, conditions: 318.15 K; 96.7 kPa; Liquid; Vibrating tube method; x2 = 0

SMILES | mass density
C[S+](C)[O-] [dimethyl sulfoxide] + CCCCCCn1cc[n+](C)c1.[Cl-] | 1075.31 ± 2.2 kg/m3
CN(C)C=O [dimethylformamide] + CCCCCCn1cc[n+](C)c1.[Cl-] | 924.86 ± 1.9 kg/m3
CC(=O)N(C)C [N,N-dimethylethanamide] + CCCCCCn1cc[n+](C)c1.[Cl-] | 918.06 ± 2 kg/m3
c1ccncc1 [pyridine] + CCCCCCn1cc[n+](C)c1.[Cl-] | 957.97 ± 1.9 kg/m3

Same assay, conditions: 323.15 K; 96.7 kPa; Liquid; Capillary tube (Ostwald / Ubbelohde) method; x2 = 0

SMILES | viscosity
C[S+](C)[O-] [dimethyl sulfoxide] + CCCCCCn1cc[n+](C)c1.[Cl-] | 1.304 ± 0.2 mPa·s
CN(C)C=O [dimethylformamide] + CCCCCCn1cc[n+](C)c1.[Cl-] | 0.619 ± 0.093 mPa·s
CC(=O)N(C)C [N,N-dimethylethanamide] + CCCCCCn1cc[n+](C)c1.[Cl-] | 0.698 ± 0.11 mPa·s
c1ccncc1 [pyridine] + CCCCCCn1cc[n+](C)c1.[Cl-] | 0.658 ± 0.099 mPa·s

Same assay, conditions: 323.15 K; 96.7 kPa; Liquid; Vibrating tube method; x2 = 0

SMILES | mass density
C[S+](C)[O-] [dimethyl sulfoxide] + CCCCCCn1cc[n+](C)c1.[Cl-] | 1070.32 ± 2.2 kg/m3
CN(C)C=O [dimethylformamide] + CCCCCCn1cc[n+](C)c1.[Cl-] | 920.07 ± 1.9 kg/m3
CC(=O)N(C)C [N,N-dimethylethanamide] + CCCCCCn1cc[n+](C)c1.[Cl-] | 913.44 ± 1.9 kg/m3
c1ccncc1 [pyridine] + CCCCCCn1cc[n+](C)c1.[Cl-] | 952.9 ± 1.9 kg/m3

Same assay, conditions: 328.15 K; 96.7 kPa; Liquid; Capillary tube (Ostwald / Ubbelohde) method; x2 = 0

SMILES | viscosity
C[S+](C)[O-] [dimethyl sulfoxide] + CCCCCCn1cc[n+](C)c1.[Cl-] | 1.211 ± 0.18 mPa·s
CN(C)C=O [dimethylformamide] + CCCCCCn1cc[n+](C)c1.[Cl-] | 0.589 ± 0.088 mPa·s
CC(=O)N(C)C [N,N-dimethylethanamide] + CCCCCCn1cc[n+](C)c1.[Cl-] | 0.661 ± 0.099 mPa·s
c1ccncc1 [pyridine] + CCCCCCn1cc[n+](C)c1.[Cl-] | 0.622 ± 0.093 mPa·s

Same assay, conditions: 328.15 K; 96.7 kPa; Liquid; Vibrating tube method; x2 = 0

SMILES | mass density
C[S+](C)[O-] [dimethyl sulfoxide] + CCCCCCn1cc[n+](C)c1.[Cl-] | 1065.33 ± 2.1 kg/m3
CN(C)C=O [dimethylformamide] + CCCCCCn1cc[n+](C)c1.[Cl-] | 915.26 ± 1.8 kg/m3
CC(=O)N(C)C [N,N-dimethylethanamide] + CCCCCCn1cc[n+](C)c1.[Cl-] | 908.81 ± 1.9 kg/m3
c1ccncc1 [pyridine] + CCCCCCn1cc[n+](C)c1.[Cl-] | 947.82 ± 1.9 kg/m3

Same assay, conditions: 333.15 K; 96.7 kPa; Liquid; Capillary tube (Ostwald / Ubbelohde) method; x2 = 0

SMILES | viscosity
C[S+](C)[O-] [dimethyl sulfoxide] + CCCCCCn1cc[n+](C)c1.[Cl-] | 1.127 ± 0.17 mPa·s
